# Compound: CC(C)(C)c1cc(NC(=O)Nc2ccc(-c3cn4c(n3)sc3cc(OCCN5CCOCC5)ccc34)cc2)no1 [Quizartinib] + COc1cccc2cc(-c3nc([C@H]4CC[C@H](C(=O)O)CC4)n4ncnc(N)c34)[nH]c12 [OSI-027] (partner 0.5 µM)
# Assay: relative viability (nuclei count vs DMSO), 5 days (fraction); higher = more cells survive
# Conditions: first compound 0.1 µM
# In short: (§1)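 Relative viability equals treated-well nuclei counts divided by vehicle-well nuclei counts. Counts came from 4× images of lung cancer cell lines grown in 1536-well plates for 5 days after pin-tool dosing on the day after seeding. Dosing used one drug alone or a fixed anchor-drug dose plus five library-drug doses (not always all listed) in √10 steps, and values are medians of duplicate plates.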
row,Cell Line,relative viability
1,NCI-H23,0.401
2,NCI-H838,0.375
3,NCI-H322M,0.57
4,NCI-H1793,0.232
5,NCI-H441,0.693
6,NCI-H727,0.699
7,SW 1573,0.666
8,201T,0.615
9,HCC-44,0.549
10,NCI-H1755,0.701
11,NCI-H1650,0.494
12,ChaGo-K-1,0.584
13,COR-L23,0.768
14,NCI-H2085,0.525
15,NCI-H460,0.533

# Compound: CC(C)(C)c1cc(NC(=O)Nc2ccc(-c3cn4c(n3)sc3cc(OCCN5CCOCC5)ccc34)cc2)no1 [Quizartinib] + N=C(N)NC(=N)NCCc1ccccc1 [Phenformin] (partner 250 µM)
# Assay: as above
# Conditions: first compound 0.001 µM
# In short: as §1
row,Cell Line,relative viability
1,NCI-H1975,0.395
2,NCI-H1944,0.206
3,NCI-H2126,0.518
4,EMC-BAC-2,0.446
5,SK-LU-1,0.482
6,NCI-H2170,0.415
7,SW 900,0.618
8,NCI-H661,0.274
9,NCI-H358,0.292
10,CAL-12T,0.587
11,LK-2,0.243
12,HOP-62,0.624
13,PC-14,0.493
14,NCI-H1993,0.478
15,NCI-H2405,0.42
16,NCI-H2342,0.595

row,Cell Line,relative viability
1,LOU-NH91,0.693
2,NCI-H1666,0.581
3,NCI-H838,0.442
4,NCI-H322M,0.541
5,NCI-H1793,0.361
6,NCI-H441,0.831
7,SW 1573,0.355
8,201T,0.472
9,HCC-44,0.203
10,NCI-H1755,0.58
11,NCI-H1650,0.418
12,ChaGo-K-1,0.516
13,COR-L23,0.419
14,NCI-H2085,0.631
15,NCI-H460,0.379

# Same assay, conditions: first compound 0.003162 µM
row,Cell Line,relative viability
1,NCI-H1975,0.406
2,NCI-H1944,0.209
3,NCI-H2126,0.58
4,EMC-BAC-2,0.493
5,SK-LU-1,0.504
6,NCI-H2170,0.432
7,SW 900,0.685
8,NCI-H661,0.289
9,NCI-H358,0.4
10,CAL-12T,0.533
11,HOP-62,0.625
12,PC-14,0.698
13,NCI-H1993,0.48
14,NCI-H2405,0.414
15,NCI-H3122,0.377
16,A-427,0.411
17,NCI-H2342,0.629

row,Cell Line,relative viability
1,LOU-NH91,0.679
2,NCI-H1666,0.433
3,NCI-H23,0.724
4,NCI-H838,0.692
5,NCI-H322M,0.827
6,NCI-H1793,0.338
7,NCI-H441,0.807
8,NCI-H727,0.514
9,SW 1573,0.369
10,201T,0.426
11,HCC-44,0.323
12,NCI-H1755,0.665
13,NCI-H1650,0.585
14,ChaGo-K-1,0.494
15,COR-L23,0.389
16,NCI-H2085,0.648
17,NCI-H460,0.48

# Same assay, conditions: first compound 0.01 µM
row,Cell Line,relative viability
1,NCI-H1975,0.476
2,NCI-H1944,0.182
3,NCI-H2126,0.534
4,EMC-BAC-2,0.552
5,SK-LU-1,0.625
6,NCI-H2170,0.403
7,NCI-H661,0.3
8,NCI-H358,0.327
9,CAL-12T,0.66
10,LK-2,0.47
11,HOP-62,0.84
12,PC-14,0.571
13,NCI-H1993,0.523
14,NCI-H2405,0.402
15,NCI-H3122,0.381
16,A-427,0.327
17,NCI-H2342,0.539

row,Cell Line,relative viability
1,LOU-NH91,0.723
2,NCI-H1666,0.569
3,NCI-H23,0.771
4,NCI-H838,0.498
5,NCI-H322M,0.837
6,NCI-H1793,0.385
7,NCI-H441,0.787
8,NCI-H727,0.584
9,SW 1573,0.397
10,201T,0.476
11,NCI-H1755,0.609
12,NCI-H1650,0.382
13,ChaGo-K-1,0.455
14,COR-L23,0.476
15,NCI-H2085,0.753
16,NCI-H460,0.587

# Same assay, conditions: first compound 0.03162 µM
row,Cell Line,relative viability
1,NCI-H1975,0.399
2,NCI-H1944,0.192
3,SK-LU-1,0.451
4,NCI-H2170,0.436
5,SW 900,0.586
6,NCI-H661,0.224
7,NCI-H358,0.115
8,CAL-12T,0.435
9,LK-2,0.138
10,HOP-62,0.662
11,PC-14,0.394
12,NCI-H1993,0.441
13,NCI-H2405,0.407
14,A-427,0.256
15,NCI-H2342,0.616
16,LOU-NH91,0.682
17,NCI-H1666,0.568
18,NCI-H23,0.727
19,NCI-H838,0.607
20,NCI-H322M,0.547
21,NCI-H1793,0.317
22,NCI-H727,0.52
23,201T,0.408
24,HCC-44,0.169
25,NCI-H1755,0.652
26,ChaGo-K-1,0.443
27,COR-L23,0.37
28,NCI-H2085,0.673
29,NCI-H460,0.0822

# Same assay, conditions: first compound 0.1 µM
row,Cell Line,relative viability
1,NCI-H1975,0.404
2,NCI-H1944,0.173
3,NCI-H2126,0.576
4,EMC-BAC-2,0.525
5,SK-LU-1,0.549
6,NCI-H2170,0.378
7,SW 900,0.72
8,NCI-H661,0.194
9,NCI-H358,0.299
10,CAL-12T,0.39
11,LK-2,0.108
12,HOP-62,0.666
13,PC-14,0.978
14,NCI-H1993,0.625
15,NCI-H2405,0.383
16,NCI-H3122,0.359

# Reference: the supplement of paper PMC10307832
